The text below walks through data of patent US20250281465A1, “MOLECULES THAT ENHANCE EXTRACELLULAR VESICLE RELEASE” (priority 2022, published 2025).

The subject of one data set is THP-1 cells. Put plainly: Intracellular Ca2+ influx screening (Fura-2) in THP-1 cells. In kind it is cell-based, human. The note with it: hit candidate compounds 10 μM, 25 minutes, vs vehicle control (DMSO). How it is done:
FIGS. 1A-1D. Intracellular Ca^2+ influx screening of 84 HTS hit candidate compounds. (A) THP-1 cells were loaded with the ratiometric Ca^2+ indicator, Fura-2, and treated with lonomycin (ION, 1 μM), Thapsigargin (1 μM), or 84 hit candidate compounds (10 μM) for 25 minutes. Data are presented as the area under the curve (AUG) of OD340/380 ratios corresponding to the intracellular Ca^2+ kinetics. The baseline-subtracted AUG was calculated using GraphPad Prism (GraphPad Software, San Diego, CA). (B) Ca^2+ mobilization by compound #634. mBMDCs were loaded with the ratiometric Ca^2+ indicator, Fura-8, and treated with ION (1 μM), or #634 (2 and 10 μM) for 25 minutes. The dashed line indicates the timing of compounds added. The data shown are representative of three independent experiments showing similar results. (C) Ca^2+ add-back assay. Fura-8-loaded mBMDC were treated with ION (1 μM), or compound #634 (2 μM, 10 μM) for 15 minutes in the absence of extracellular Ca^2+, and then Ca^2+ (final 1.8 mM) was added at 15 minutes. Data shown are representative of three independent experiments showing similar results. (D) C57BL/6 mice (n=5/group) were intramuscularly immunized with ovalbumin (OVA, 20 μg/mouse) adjuvanted with compound #634 (200 nmol/mouse), or Veh (10% DMSO) on days 0 and 21 and bled on day 28. OVA-specific IgGI and IgG2c levels in sera were determined by ELISA. **p<0.01, ***p<0.001, ns (not significant) by KruskalWallis tests with Dunn's post hoc test vs. Veh.
FIGS. 18A-18C. Compound 634 induces intracellular Ca^2+ levels in mBMDCs. […] The time-response pattern of intracellular Ca^2+ levels was recorded for 25 minutes. AUC of OD340/380 ratios corresponds to the intracellular Ca^2+ kinetics, and the baseline-subtracted AUC was calculated by GraphPad Prism. […]
FIGS. 24A-24B. […] The time-response pattern of intracellular Ca^2+ levels was recorded with a plate reader for 25 minutes. (A) The AUC of OD340/380 ratios corresponds to the intracellular Ca^2+ kinetics and the baseline-subtracted AUC was calculated by GraphPad Prism (FIG. 36). […]

Data set [1] relates to mBMDCs. Put plainly: Cell viability / cytotoxicity in mBMDCs (MTT). In kind it is cell-based, mouse. The note with it: mBMDCs, Example 2 clustered hits. How it is done:
FIGS. 30A-30B. […] After 48 hours incubation, cell viability was determined by MTT assay.
mBMDCs (10^5 cells/200 μL/well) were treated with 10 and 5 μM of a test compound in 96-well plates overnight. After 18 hours of drug treatment, MTT (0.5 mg/ml) was added to each well. The cells were lysed after 6-8 hours incubation, and absorbance values at 570 and 650 nm were measured. PrestoBlue reagent (#A13261, Thermo Fisher Scientific) was used for cell viability assay in CD63 HTS as described earlier.
Cell viability assay. mBMDCs (2×10^6 cells/200 μL/well in RPMI1640 supplemented with dialyzed 10% FBS, or 1.5×10^6 cells/200 μL/well in RPMI1640 supplemented with 10% exosome depleted FBS) were treated with 10 μM of each test compound in 96-well plates. After 46-48 hours of compound treatment, MTT (0.5 mg/mL) was added to each well. The cells were lysed after overnight incubation, and absorbance values at 570 and 650 nm were measured.

For another data set, the system named is NF-κB. Put plainly: NF-κB-bla THP-1 HTS. In kind it is cell-based, human. To be noted: 10 μM, 5 hours. The method, then:
The robotic HTS using the three reporter cells were performed using 384-well plates by the SelectScreen™ service, Thermo Fisher Scientific (Madison, WI) (Pu et al., 2012; Chan et al., 2017b; Shukla et al., 2018). For HTS using NF-κB-bla and ISRE-bla THP-1 cells, LPS (100 ng/ml) and human IFN-α (50 nM) were used as the positive controls, respectively, while 0.5% DMSO was used as vehicle (Veh). The cells were incubated with compounds (10 μM) for 5 hours, and LiveBLAzer™ FRET BIG substrate (CCF4-AM) mixture was added. Fluorescence was measured at an excitation wavelength of 405 nm, and emission wavelengths of 465 and 535 nm. The background values were subtracted from the raw values (cell-free wells at the same fluorescence wavelength). Emission ratios were calculated by dividing background-subtracted values from em1ss1on wavelength of 465 nm by those from emission wavelength of 535 nm. The response ratio (RR) was calculated as follows (emission ratio of a test well)/(average emission ratio of wells with Veh). Further, for comparison of activity, “% activation” for each compound was computed within the plate as 100×(compound RR−average Veh RR)/(average LPS RR−average Veh RR).

Data set [2] concerns mBMDCs. Put plainly: EV release from mBMDCs (differential ultracentrifugation, MRPS). The note with it: 10 μM, 46-48 h, vs Veh.

Structures are written as SMILES. “Also recorded” adds a separate entry of the source.

For the molecule `COC(=O)c1sc(-c2cccs2)cc1NS(=O)(=O)c1ccsc1C(=O)OC` [#504], the “intracellular Ca^2+ increase (Fura-2 assay)” value with THP-1 cells was “higher intracellular Ca^2+ increase than vehicle control; also recorded: potent in calcium Fura-2 assay”. For the same molecule, in the data set with mBMDCs [1], the “MTT assay values (cell viability)” value is “higher MTT values”. Besides, the “NF-κB activity (primary HTS)” value in the data set with NF-κB is “much lower NF-κB inducing activity”. For the same molecule, the “number of EV particles released in the culture supernatant” value in the data set with mBMDCs [2] is reported as “low”.
